Data published in US11497751B2, “Modulators of Rho-associated protein kinase” (Redx Pharma PLC, priority 2018, dated 2022).
Structures can show the parent of a compound that is named as a salt.

Target: T1, N-terminal 6His-tagged ROCK2 catalytic domain 11-552 (Homo sapiens, UniProt O75116)
T1 construct: N-terminal 6His-tagged ROCK2 catalytic domain 11-552; 6His (N); purchased Dundee University, UK; host or cells: baculovirus expression system
Assay: ROCK2 binding activity: ROCK2 inhibition, ADP-Glo Kinase Assay
Format: biochemical
Conditions: 1.25 nM ROCK2, 100 μM long S6 peptide, 20 μM ATP; 1 hour pre-incubation; read-out: ADP-Glo kinase activity assay ROCK2 Category
Description: Assay for ROCK2 inhibition was performed using the protein construct N-terminal 6His-tagged ROCK2 catalytic domain 11-552 (Dundee University, UK). Protein was purified from a baculovirus expression system. Long S6 peptide ([…]) was used as substrate. Kinase reactions were carried out in 15 μl volume in a 96-well plate (black, half area) using 1.25 nM constitutively active ROCK2 kinase, 100 μM long S6 peptide, 20 μM ATP and test compound in DMSO (or DMSO only for controls). The final concentration of DMSO was 1%. Assay buffer was 50 mM HEPES pH 7.5 supplemented with 0.2 mM EDTA, 10 mM magnesium acetate, 0.01% Tween-20, 1 mM DTT and 0.01% BSA. Test compounds were pre-incubated with ROCK2 kinase for 1 hour before addition of ATP and long S6 peptide. After incubation for a further 1 hour, the amount of ADP produced was measured using ADP-Glo Kinase Assay (Promega) as per manufacturer's instructions. The luminescence was measured on a PHERAstar FS (BMG Labtech). The concentration of test compound required to inhibit ADP production by 50% (the IC50) was calculated using a four-parameter logistic function with software by Dotmatics.
The category “+” refers to compounds with a ROCK2 IC50 value of >10 μM. The category “++” refers to compounds with a ROCK2 IC50 value of 10 to 3 μM. The category “+++” refers to compounds with a ROCK2 IC50 value of 3 to 0.3 μM. The category “++++” refers to compounds with a ROCK2 IC50 value of <0.3 μM.

T1 sequence (O75116 11-552): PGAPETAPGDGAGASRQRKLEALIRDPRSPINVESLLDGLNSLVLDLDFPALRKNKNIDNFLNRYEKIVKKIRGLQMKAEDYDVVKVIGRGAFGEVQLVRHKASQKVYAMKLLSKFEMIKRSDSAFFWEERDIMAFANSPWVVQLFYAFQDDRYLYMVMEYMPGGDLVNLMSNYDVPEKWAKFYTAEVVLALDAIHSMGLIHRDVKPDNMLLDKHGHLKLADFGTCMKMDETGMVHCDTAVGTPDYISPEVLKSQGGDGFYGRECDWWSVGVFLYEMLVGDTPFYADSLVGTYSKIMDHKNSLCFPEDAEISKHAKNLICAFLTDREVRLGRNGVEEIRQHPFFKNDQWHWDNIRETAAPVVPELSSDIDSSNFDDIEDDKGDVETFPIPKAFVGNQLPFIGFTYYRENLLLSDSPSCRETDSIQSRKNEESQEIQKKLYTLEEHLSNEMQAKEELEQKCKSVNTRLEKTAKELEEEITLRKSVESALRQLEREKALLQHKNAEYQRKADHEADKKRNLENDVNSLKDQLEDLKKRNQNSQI

Structure (SMILES)	IC50
COc1ccccc1-c1nnc(Nc2ccc3[nH]ncc3c2)[nH]1 [Example 4]	> 10000 nM
COc1ccc(-c2nnc(Nc3ccc4[nH]nc(C)c4c3)[nH]2)cc1 [Example 5]	3000 to 10000 nM
CC(C)NC(=O)COc1cccc(-c2nnc(Nc3ccc4[nH]ncc4c3)[nH]2)c1 [Example 6]	< 300 nM
COc1cc(-c2nnc(Nc3ccc4[nH]ncc4c3)[nH]2)ccc1OCC(=O)NC(C)C [Example 8]	< 300 nM
CNC(=O)COc1ccc(-c2nnc(Nc3ccc4[nH]ncc4c3)[nH]2)cc1OC [Example 9]	300 to 3000 nM
c1ccc(COc2ccc(-c3nnc(Nc4ccc5[nH]ncc5c4)[nH]3)cc2)cc1 [Example 13]	300 to 3000 nM
CC(C)NC(=O)COc1ccc(-c2nnc(Nc3ccc4[nH]ncc4c3)[nH]2)cc1C#N [Example 14]	< 300 nM
COC(=O)COc1ccc(-c2nnc(Nc3ccc4[nH]ncc4c3)[nH]2)cc1 [Example 17]	< 300 nM
CC(C)NC(=O)C(C)(C)Oc1ccc(-c2nnc(Nc3ccc4[nH]ncc4c3)[nH]2)cc1 [Example 19]	300 to 3000 nM
CC(C)NC(=O)CCc1ccc(-c2nnc(Nc3ccc4[nH]ncc4c3)[nH]2)cc1 [Example 20]	300 to 3000 nM
CC(C)NC(=O)CCOc1ccc(-c2nnc(Nc3ccc4[nH]ncc4c3)[nH]2)cc1 [Example 21]	300 to 3000 nM
NCCOc1ccc(-c2nnc(Nc3ccc4[nH]ncc4c3)[nH]2)cc1 [Example 24]	300 to 3000 nM
CC(C)NC(=O)COc1ccc(-c2nnc(Nc3ccc4[nH]ncc4c3)[nH]2)c(F)c1 [Example 25]	300 to 3000 nM
CC(C)NC(=O)Cn1ccc(-c2nnc(Nc3ccc4[nH]ncc4c3)[nH]2)cc1=O [Example 28]	3000 to 10000 nM
O=C(O)COc1ccc(-c2nnc(Nc3ccc4[nH]ncc4c3)[nH]2)cc1 [Example 31]	300 to 3000 nM
CC(C)C(=O)NCCCOc1ccc(-c2nnc(Nc3ccc4[nH]ncc4c3)[nH]2)cc1 [Example 32]	< 300 nM
CC(C)NC(=O)CCn1ccc(-c2nnc(Nc3ccc4[nH]ncc4c3)[nH]2)cc1=O [Example 33]	> 10000 nM
CC(C)NC(=O)OCc1ccc(-c2nnc(Nc3ccc4[nH]ncc4c3)[nH]2)cc1 [Example 34]	< 300 nM
CC(C)NC(=O)CCn1cc(-c2nnc(Nc3ccc4[nH]ncc4c3)[nH]2)ccc1=O [Example 35]	300 to 3000 nM

Structure (SMILES)	IC50
CS(=O)(=O)NC(=O)COc1ccc(-c2nnc(Nc3ccc4[nH]ncc4c3)[nH]2)cc1 [Example 37]	300 to 3000 nM
Oc1ccc(-c2nnc(Nc3ccc4[nH]ncc4c3)[nH]2)cc1 [Example 39]	300 to 3000 nM
CCc1cc(-c2nnc(Nc3ccc4[nH]ncc4c3)[nH]2)ccc1OCC(=O)NC(C)C [Example 42]	< 300 nM
CCNC(=O)c1ccc(-c2nc(Nc3ccc4[nH]ncc4c3Cl)n(C)n2)cc1F [Example 43, 4-[5-[(4-chloro-1H-indazol-5-yl)amino]-1-methyl-1,2,4-triazol-3-yl]-N-ethyl-2-fluoro-benzamide]	< 300 nM
COc1cc(-c2nc(Nc3ccc4[nH]ncc4c3)n(C)n2)ccc1OCC(=O)NC1CNC1 [Example 45]	< 300 nM
COc1cc(-c2nc(Nc3ccc4[nH]ncc4c3Cl)n(C)n2)ccc1OCC(=O)NC1CCNC1 (stereo not drawn) [Example 49]	< 300 nM
COc1cc(-c2nc(Nc3ccc4[nH]ncc4c3Cl)n(C)n2)ccc1OCC(=O)NC1CCOC1 (stereo not drawn) [Example 51]	< 300 nM
CC(C)NC(=O)N1CCc2cc(-c3nc(Nc4ccc5[nH]ncc5c4Cl)n(C)n3)ccc2C1 [Example 54]	< 300 nM
COC(=O)c1ccc(-c2nc(Nc3ccc4[nH]ncc4c3Cl)n(C)n2)cc1 [Example 56]	< 300 nM
CC(C)NC(=O)CN1CCOc2cc(-c3nc(Nc4ccc5[nH]ncc5c4Cl)n(C)n3)ccc21 [Example 58]	< 300 nM
Cn1nc(-c2cnn(Cc3ccccc3)c2)nc1Nc1ccc2[nH]ncc2c1Cl [Example 60]	300 to 3000 nM
CNC(=O)c1ccc(-c2nc(Nc3ccc4[nH]ncc4c3Cl)n(C)n2)cc1 [Example 62]	< 300 nM
Cn1nc(-c2ccc3c(c2)OCCC3=O)nc1Nc1ccc2[nH]ncc2c1Cl [Example 66]	< 300 nM
Cn1nc(-c2cccc(N3CCOCC3)c2)nc1Nc1ccc2[nH]ncc2c1Cl [Example 69]	< 300 nM
Cn1nc(-c2ccc3c(c2)OCCO3)nc1Nc1ccc2[nH]ncc2c1Cl [Example 72]	300 to 3000 nM
CC(=O)NCc1ccc(-c2nc(Nc3ccc4[nH]ncc4c3Cl)n(C)n2)cc1 [Example 73]	300 to 3000 nM
Cn1nc(-c2cncnc2)nc1Nc1ccc2[nH]ncc2c1Cl [Example 76]	300 to 3000 nM
COc1ccc(-c2nc(Nc3ccc4[nH]ncc4c3Cl)n(C)n2)cc1OC [Example 77]	< 300 nM

The next lines start with the values.

IC50	Structure (SMILES)
300 to 3000 nM	COc1ccc(-c2nnc(Nc3ccc4[nH]ncc4c3)[nH]2)cc1 [Example 1, N-[5-(4-Methoxyphenyl)-4H-1,2,4-triazol-3-yl]-1H-indazol-5-amine dihydrochloride]
300 to 3000 nM	COc1cccc(-c2nnc(Nc3ccc4[nH]ncc4c3)[nH]2)c1 [Example 2]
300 to 3000 nM	COc1cc(OC)cc(-c2nnc(Nc3ccc4[nH]ncc4c3)[nH]2)c1 [Example 3]
< 300 nM	CC(C)NC(=O)COc1ccc(-c2nnc(Nc3ccc4[nH]ncc4c3)[nH]2)cc1 [Example 7]
< 300 nM	Cc1cc(-c2nnc(Nc3ccc4[nH]ncc4c3)[nH]2)ccc1OCC(=O)NC(C)C [Example 10]
< 300 nM	CC(C)NC(=O)COc1ccc(-c2nc(Nc3ccc4[nH]ncc4c3)n[nH]2)cc1F [Example 12, 2-[2-fluoro-4-[5-(1H-indazol-5-ylamino)-4H-1,2,4-triazol-3-yl]phenoxy]-N-isopropyl-acetamide]
300 to 3000 nM	CC(C)NC(=O)COc1ccc(-c2nnc(Nc3ccc4[nH]ncc4c3)[nH]2)cc1CN [Example 15]
300 to 3000 nM	CC(C)NC(=O)Cn1cc(-c2nnc(Nc3ccc4[nH]ncc4c3)[nH]2)ccc1=O [Example 16]
300 to 3000 nM	CC(C)NC(=O)C(C)Oc1ccc(-c2nnc(Nc3ccc4[nH]ncc4c3)[nH]2)cc1 (stereo not drawn) [Example 18]
300 to 3000 nM	NCCCOc1ccc(-c2nnc(Nc3ccc4[nH]ncc4c3)[nH]2)cc1 [Example 22]
300 to 3000 nM	CC(C)C(=O)NCCOc1ccc(-c2nnc(Nc3ccc4[nH]ncc4c3)[nH]2)cc1 [Example 23]
< 300 nM	Cc1cc(OCC(=O)NC(C)C)ccc1-c1nnc(Nc2ccc3[nH]ncc3c2)[nH]1 [Example 26]
300 to 3000 nM	COc1cc(OCC(=O)NC(C)C)ccc1-c1nnc(Nc2ccc3[nH]ncc3c2)[nH]1 [Example 27]
300 to 3000 nM	CC(C)NC(=O)COc1ccc(-c2nnc(Nc3ccc4[nH]ncc4c3)[nH]2)cn1 [Example 29]
< 300 nM	CC(C)NC(=O)COc1ccc(-c2nnc(Nc3ccc4[nH]ncc4c3Cl)[nH]2)cc1 [Example 30]
300 to 3000 nM	CC(C)NC(=O)COc1c(F)cc(-c2nnc(Nc3ccc4[nH]ncc4c3)[nH]2)cc1F [Example 36]

IC50	Structure (SMILES)
< 300 nM	CC(C)NC(=O)COc1ccc(-c2nnc(Nc3ccc4[nH]ncc4c3)[nH]2)cc1Cl [Example 38]
300 to 3000 nM	COc1cc(-c2nnc(Nc3ccc4[nH]ncc4c3)[nH]2)ccc1OCc1nnc(C)o1 [Example 40]
3000 to 10000 nM	CC(C)NC(=O)NCc1ccc(-c2nnc(Nc3ccc4[nH]ncc4c3)[nH]2)cc1 [Example 41]
> 10000 nM	COc1cc(-c2nc(N(C)c3ccc4[nH]ncc4c3)n(C)n2)ccc1OCC(=O)NC(C)C [Example 46]
< 300 nM	CN1CCc2cc(-c3nc(Nc4ccc5[nH]ncc5c4)n(C)n3)ccc2C1=O [Example 47]
< 300 nM	COc1cc(-c2nc(Nc3ccc4[nH]ncc4c3Cl)n(C)n2)ccc1OCC(=O)NC1CNC1 [Example 48]
< 300 nM	COc1cc(-c2nc(Nc3ccc4[nH]ncc4c3Cl)n(C)n2)ccc1OCC(=O)NC1(CO)CCCC1 [Example 50]
300 to 3000 nM	CC(C)NC(=O)COc1ccc(-c2nc(Nc3ccc4[nH]ncc4c3Cl)n(C)n2)cc1N1CCOCC1 [Example 52]
300 to 3000 nM	CNC(=O)Cc1ccc(-c2nc(Nc3ccc4[nH]ncc4c3Cl)n(C)n2)cc1OC [Example 57]
300 to 3000 nM	Cn1nc(-c2ccc(C(=O)N3CCOCC3)cc2)nc1Nc1ccc2[nH]ncc2c1Cl [Example 61]
< 300 nM	COCc1ccc(-c2nc(Nc3ccc4[nH]ncc4c3Cl)n(C)n2)cc1 [Example 63]
< 300 nM	COc1cc(-c2nc(Nc3ccc4[nH]ncc4c3Cl)n(C)n2)ccc1OCC(=O)NCCN(C)C [Example 64]
< 300 nM	COc1cc(-c2nc(Nc3ccc4[nH]ncc4c3Cl)n(C)n2)ccc1OCC(=O)NC(C)C [Example 68]
300 to 3000 nM	Cn1nc(-c2ccc(N)nc2)nc1Nc1ccc2[nH]ncc2c1Cl [Example 70]
< 300 nM	CNC(=O)Nc1ccc(-c2nc(Nc3ccc4[nH]ncc4c3Cl)n(C)n2)cc1OC [Example 71]
< 300 nM	Cn1nc(-c2cccc(CNS(C)(=O)=O)c2)nc1Nc1ccc2[nH]ncc2c1Cl [Example 75]
